Assay results as given in ChEMBL document CHEMBL3885881, “DrugMatrix”.

Organism: Rattus norvegicus
Test: DrugMatrix - Regimen: Daily Repeat
Format: toxicity, organism-based, Sprague-Dawley
Parameters: regimen Daily Repeat, gender Male, age 6-8 weeks
Conditions: in vivo, po, route oral GAVAGE, […]; for ABSOLUTE BASOPHIL / ABSOLUTE EOSINOPHIL / ABSOLUTE LYMPHOCYTE / ABSOLUTE MONOCYTE / ABSOLUTE SEGMENTED NEUTROPHIL / BASOPHIL / EOSINOPHIL / ERYTHROCYTE COUNT / HEMATOCRIT / HEMOGLOBIN / LEUKOCYTE COUNT / LYMPHOCYTE / MEAN CORPUSCULAR HEMOGLOBIN / MEAN CORPUSCULAR HEMOGLOBIN CONCENTRATION / MEAN CORPUSCULAR VOLUME / MONOCYTE / NEUTROPHIL / NUCLEATED RED BLOOD CELLS / PLATELET COUNT: tissue Blood; for ALANINE AMINOTRANSFERASE / ALBUMIN / ALKALINE PHOSPHATASE / ASPARTATE AMINOTRANSFERASE / BLOOD UREA NITROGEN / CARBON DIOXIDE / CHLORIDE / CHOLESTEROL / CREATINE PHOSPHOKINASE / CREATININE / GLUCOSE / LACTATE DEHYDROGENASE / LIPASE / PHOSPHORUS / POTASSIUM / SODIUM / TOTAL BILIRUBIN / TOTAL PROTEIN / URIC ACID: tissue Plasma
[1] = 10 mg/kg, 72 h, dose level Low, time 3 day
[2] = 10 mg/kg, 120 h, dose level Low, time 5 day
[3] = 75 mg/kg, 72 h, dose level High, time 3 day
[4] = 75 mg/kg, 120 h, dose level High, time 5 day

NC(=O)N1C(=O)/C(=C(\O)c2cccs2)c2cc(Cl)ccc21 [TENIDAP]
ABSOLUTE BASOPHIL [1]: 0 CELLS/uL | ABSOLUTE EOSINOPHIL [1]: 204 CELLS/uL | ABSOLUTE LYMPHOCYTE [1]: 13523 CELLS/uL | ABSOLUTE MONOCYTE [1]: 155.33 CELLS/uL | ABSOLUTE SEGMENTED NEUTROPHIL [1]: 1651 CELLS/uL | BASOPHIL [1]: 0% | EOSINOPHIL [1]: 1.33% | ERYTHROCYTE COUNT [1]: 5.32 x10E6/uL | HEMATOCRIT [1]: 33.53% | HEMOGLOBIN [1]: 13.33 G/DL | LEUKOCYTE COUNT [1]: 15.53 x10E3/uL | LYMPHOCYTE [1]: 86.67% | MEAN CORPUSCULAR HEMOGLOBIN [1]: 25.03 pg | MEAN CORPUSCULAR HEMOGLOBIN CONCENTRATION [1]: 39.73 G/DL | MEAN CORPUSCULAR VOLUME [1]: 62.97 fL | MONOCYTE [1]: 1% | NEUTROPHIL [1]: 11% | NUCLEATED RED BLOOD CELLS [1]: 0 /100WBC | PLATELET COUNT [1]: 1066.67 x10E3/uL | ALANINE AMINOTRANSFERASE [1]: 83.33 u/L | ALBUMIN [1]: 3.87 G/DL | ALKALINE PHOSPHATASE [1]: 429.33 u/L | ASPARTATE AMINOTRANSFERASE [1]: 109.67 u/L | BLOOD UREA NITROGEN [1]: 11 mg/dL | CARBON DIOXIDE [1]: 23.67 mmol/L | CHLORIDE [1]: 102.67 MEQ/L | CHOLESTEROL [1]: 63.67 mg/dL | CREATINE PHOSPHOKINASE [1]: 779.67 u/L | CREATININE [1]: 0.2 mg/dL | GLUCOSE [1]: 169 mg/dL | LACTATE DEHYDROGENASE [1]: 223.67 u/L | LIPASE [1]: 12 u/L | PHOSPHORUS [1]: 11.47 mg/dL | POTASSIUM [1]: 5.98 MEQ/L | SODIUM [1]: 143.97 MEQ/L | TOTAL BILIRUBIN [1]: 0.17 mg/dL | TOTAL PROTEIN [1]: 5.27 G/DL | URIC ACID [1]: 1.43 mg/dL | ABSOLUTE BASOPHIL [2]: 0 CELLS/uL | ABSOLUTE EOSINOPHIL [2]: 83.67 CELLS/uL | ABSOLUTE LYMPHOCYTE [2]: 10624.67 CELLS/uL | ABSOLUTE MONOCYTE [2]: 83.67 CELLS/uL | ABSOLUTE SEGMENTED NEUTROPHIL [2]: 1674.67 CELLS/uL | BASOPHIL [2]: 0% | EOSINOPHIL [2]: 0.67% | ERYTHROCYTE COUNT [2]: 5.4 x10E6/uL | HEMATOCRIT [2]: 33.6% | HEMOGLOBIN [2]: 13.33 G/DL | LEUKOCYTE COUNT [2]: 12.47 x10E3/uL | LYMPHOCYTE [2]: 85.33% | MEAN CORPUSCULAR HEMOGLOBIN [2]: 24.7 pg | MEAN CORPUSCULAR HEMOGLOBIN CONCENTRATION [2]: 39.67 G/DL | MEAN CORPUSCULAR VOLUME [2]: 62.27 fL | MONOCYTE [2]: 0.67% | NEUTROPHIL [2]: 13.33% | NUCLEATED RED BLOOD CELLS [2]: 0 /100WBC | PLATELET COUNT [2]: 1241 x10E3/uL | ALANINE AMINOTRANSFERASE [2]: 56.33 u/L | ALBUMIN [2]: 4.13 G/DL | ALKALINE PHOSPHATASE [2]: 448.67 u/L | ASPARTATE AMINOTRANSFERASE [2]: 103.33 u/L | BLOOD UREA NITROGEN [2]: 13 mg/dL | CARBON DIOXIDE [2]: 33.67 mmol/L | CHLORIDE [2]: 100.33 MEQ/L | CHOLESTEROL [2]: 58.33 mg/dL | CREATINE PHOSPHOKINASE [2]: 442.67 u/L | CREATININE [2]: 0.21 mg/dL | GLUCOSE [2]: 155 mg/dL | LACTATE DEHYDROGENASE [2]: 736.33 u/L | LIPASE [2]: 11 u/L | PHOSPHORUS [2]: 11.1 mg/dL | POTASSIUM [2]: 6.31 MEQ/L | SODIUM [2]: 144.37 MEQ/L | TOTAL BILIRUBIN [2]: 0.17 mg/dL | TOTAL PROTEIN [2]: 5.93 G/DL | URIC ACID [2]: 1.33 mg/dL | ABSOLUTE BASOPHIL [3]: 0 CELLS/uL | ABSOLUTE EOSINOPHIL [3]: 72 CELLS/uL | ABSOLUTE LYMPHOCYTE [3]: 18447.67 CELLS/uL | ABSOLUTE MONOCYTE [3]: 586.33 CELLS/uL | ABSOLUTE SEGMENTED NEUTROPHIL [3]: 3327.33 CELLS/uL | BASOPHIL [3]: 0% | EOSINOPHIL [3]: 0.33% | ERYTHROCYTE COUNT [3]: 5.15 x10E6/uL | HEMATOCRIT [3]: 32.13% | HEMOGLOBIN [3]: 13.03 G/DL | LEUKOCYTE COUNT [3]: 22.43 x10E3/uL | LYMPHOCYTE [3]: 82% | MEAN CORPUSCULAR HEMOGLOBIN [3]: 25.3 pg | MEAN CORPUSCULAR HEMOGLOBIN CONCENTRATION [3]: 40.63 G/DL | MEAN CORPUSCULAR VOLUME [3]: 62.33 fL | MONOCYTE [3]: 2.67% | NEUTROPHIL [3]: 15% | NUCLEATED RED BLOOD CELLS [3]: 0 /100WBC | PLATELET COUNT [3]: 1275.33 x10E3/uL | ALANINE AMINOTRANSFERASE [3]: 41.67 u/L | ALBUMIN [3]: 3.37 G/DL | ALKALINE PHOSPHATASE [3]: 301 u/L | ASPARTATE AMINOTRANSFERASE [3]: 107.33 u/L | BLOOD UREA NITROGEN [3]: 11.33 mg/dL | CARBON DIOXIDE [3]: 22.33 mmol/L | CHLORIDE [3]: 100.33 MEQ/L | CHOLESTEROL [3]: 64.67 mg/dL | CREATINE PHOSPHOKINASE [3]: 1284.33 u/L | CREATININE [3]: 0.21 mg/dL | GLUCOSE [3]: 168.67 mg/dL | LACTATE DEHYDROGENASE [3]: 492.67 u/L | LIPASE [3]: 10 u/L | PHOSPHORUS [3]: 11.63 mg/dL | POTASSIUM [3]: 6.52 MEQ/L | SODIUM [3]: 144.2 MEQ/L | TOTAL BILIRUBIN [3]: 0.13 mg/dL | TOTAL PROTEIN [3]: 5.17 G/DL | URIC ACID [3]: 2.97 mg/dL | ABSOLUTE BASOPHIL [4]: 0 CELLS/uL | ABSOLUTE EOSINOPHIL [4]: 26.67 CELLS/uL | ABSOLUTE LYMPHOCYTE [4]: 9823.33 CELLS/uL | ABSOLUTE MONOCYTE [4]: 49.33 CELLS/uL | ABSOLUTE SEGMENTED NEUTROPHIL [4]: 1634 CELLS/uL | BASOPHIL [4]: 0% | EOSINOPHIL [4]: 0.33% | ERYTHROCYTE COUNT [4]: 4.78 x10E6/uL | HEMATOCRIT [4]: 30.53% | HEMOGLOBIN [4]: 12.13 G/DL | LEUKOCYTE COUNT [4]: 11.53 x10E3/uL | LYMPHOCYTE [4]: 87.67% | MEAN CORPUSCULAR HEMOGLOBIN [4]: 25.37 pg | MEAN CORPUSCULAR HEMOGLOBIN CONCENTRATION [4]: 39.73 G/DL | MEAN CORPUSCULAR VOLUME [4]: 63.83 fL | MONOCYTE [4]: 0.67% | NEUTROPHIL [4]: 11.33% | NUCLEATED RED BLOOD CELLS [4]: 0.33 /100WBC | PLATELET COUNT [4]: 1185.67 x10E3/uL | ALANINE AMINOTRANSFERASE [4]: 35.67 u/L | ALBUMIN [4]: 3.53 G/DL | ALKALINE PHOSPHATASE [4]: 211 u/L | ASPARTATE AMINOTRANSFERASE [4]: 95 u/L | BLOOD UREA NITROGEN [4]: 13.67 mg/dL | CARBON DIOXIDE [4]: 33 mmol/L | CHLORIDE [4]: 103.33 MEQ/L | CHOLESTEROL [4]: 68 mg/dL | CREATINE PHOSPHOKINASE [4]: 655 u/L | CREATININE [4]: 0.26 mg/dL | GLUCOSE [4]: 158 mg/dL | LACTATE DEHYDROGENASE [4]: 243 u/L | LIPASE [4]: 11 u/L | PHOSPHORUS [4]: 9.87 mg/dL | POTASSIUM [4]: 4.94 MEQ/L | SODIUM [4]: 147 MEQ/L | TOTAL BILIRUBIN [4]: 0.2 mg/dL | TOTAL PROTEIN [4]: 5.43 G/DL | URIC ACID [4]: 1.03 mg/dL
